Data set [1] deals with RGC. The conditions noted are these: compared with MK-801; cited from earlier work.
Data set [2] concerns RGC. Put plainly: Abeta (Aβ25-35)-induced RGC death model, in vivo cSLO imaging with annexin V and PI. More on the design: species or system mouse. The protocol:
(§1) For the analysis of Abeta, freshly made Aβ25-35 (Sigma-Aldrich, 3.40 nmol) (Dahlgren et al., 2002) was intravitreally injected into C57 mice (n=10) (Maass et al., 2007). Animals were imaged at 72 hours. For AD 3× Tg-AD studies, 4 eyes (all female, 14 months) with 2 eyes from aged control mice (PS1KI; female, 18 months) were assessed. 3× Tg-AD and control PS1KI mice were obtained from a colony (maintained at CeSI) established after a generous gift of Frank Laferla. Intravitreal phorbol myristate acetate (1 μl of 10 μg/ml) was administered to left eyes of 3× Tg-AD animals, at the same time as annexin V and PI.
(§2) Using a method the inventors have recently described, rats were given 2.5 μg of intravitreal Alexa Fluor 488 labelled annexin V in 5 μl PBS for identification of RGC apoptosis, 2 hours before in vivo imaging (Cordeiro et al., 2004). For mice, the inventors used 1 μl of a 0.25 mg/ml solution of IR-labelled annexin (Annexin-IR) in intravitreal injections as previously described (Schmitz-Valckenberg et al., 2008).
(§3) In order to identify necrotic RGCs in rats (2 μl) and mice (1 μl), propidium iodide (PI; 0.4 mg/ml, 1% solution, Sigma-Aldrich, Dorset UK) was administered intravitreally at the same time as annexin, 2 hours before in vivo imaging. PI intercalates into nucleic acids, binding to double-stranded DNA, but only crosses the plasma membrane of non-viable cells. Cells that have lost membrane integrity are thus identified by fluorescent red PI staining throughout the nuclei.
(§4) In mice, the inventors used instrumentation as previously described (Maass et al., 2007; Schmitz-Valckenberg et al., 2008), with a modified cSLO (Heidelberg Retina Angiograph 2, Heidelberg Engineering, Dossenheim, Germany) and a wide-field lens (55°). The fluorescein angiogram (488 nm argon laser) and indocyanine green (IR 790 nm diode laser) settings were used to detect PI and IR-labelled annexin respectively. The same software was used to analyse video sequenced images as described before with whole retinal monochrome images from each eye recorded and colourised. Dual-color images were produced by combining each of the grayscale images from the cSLO into the red (PI), and green (IR annexin) of an RGB color image.
The left eye of each animal was treated with intravitreal 0.40 nmol MK801 at the same time as Abeta. Wide-angle retinal images were recorded 2 hours following intravitreal annexin (green) and PI (red), as previously described (Guo at al., 2006).
To assess the relative levels of early apoptosis, late apoptosis and necrosis the inventors studied the co-localization of PI and annexin V using ImageJ software with the Intensity Correlation Analysis plugin (Li et al., 2004). Colour and raw scatter plots of annexin and PI fluorescence intensity were constructed from plugin-generated data for each animal. Corresponding scatter plots (blue) from the eyes shown in FIG. 8a-b are illustrated in FIG. 8c-d. The data were analysed in a similar manner to data derived by in vitro FACS analysis, with four quadrants (midlines shaded in colour overlay as red, green, blue and yellow) enabling separation of the different phases of cell death as annexin V positive (early apoptosis, green), annexin V and PI double positive (late apoptosis, yellow) and PI positive (necrosis, red). Thresholds were set automatically by the plugin for each analysis of each eye. The inventors then used fluorescence intensity counts from the raw scatter plots to quantify each phase of cell death.
To further assess the analytical power of the technique, the inventors next investigated whether the level of oxidative stress in Abeta-treated eyes influenced the phase of cell death and whether this was possible to visualize in vivo. […] FIG. 8f-g are taken from the right untreated (F) and left PMA-treated (G) eye of an animal treated 72 hours previously with 3.40 nmol Aβ25-35. […]

Data set [3] relates to RGC. The data set is described as follows: Chronic ocular hypertensive (OHT) experimental glaucoma model, in vivo imaging with annexin V and PI. More on the design: species or system rat.
Text: For the experimental glaucoma studies, the inventors used an established model of ocular hypertension. 18 rats underwent surgery to elevate intraocular pressure (IOP) by injection of hypertonic saline solution (1.8 M) into two episcleral veins as previously described (Cordeiro et al., 2004). Contralateral, unoperated eyes acted as controls. Animals were imaged at 0, 3, 8, and 16 weeks, with at least 3 animals at each time point being killed for histology immediately after imaging. A subgroup of animals (n=4) was treated at the time of surgery with the NMDA antagonist MK801 (0.6 nmol; Tocris Cookson Ltd, Bristol UK). These animals were imaged at 3 weeks and then killed for histology.
as §2, §3
All rats had in vivo retinal imaging performed at regular and set intervals after experimental treatment, using a prototype Zeiss confocal scanning laser ophthalmoscope (cSLO), as previously described (Cordeiro et al., 2004; Maass et al., 2007). Imaging was performed under general anaesthesia with animals being held in a stereotaxic frame, with their pupils dilated. Different lasers and filters were used for the different fluorochromes: for excitation of Alexa Fluor 488 an Argon laser wavelength of 488 nm, and a solid state photodetector with a 521 nm cut-off filter and a 550 nm cut-on filter was employed; for DiI, a diode-pumped crystal green laser with a wavelength of 532 nm was used with 550 nm cut-off and 600 nm cut-on filters; the same laser was used for PI visualization but with a 650 nm cut-off. […] Colour and raw scatter plots of annexin and PI fluorescence intensity were constructed, so data could be analysed in a similar manner to data derived by in vitro FACS analysis. […] Fluorescence intensity counts derived from raw scatter plots were used to quantify each phase of cell death. […]

Another data set has as its system RGCs. The conditions noted are these: in vitro and in vivo; cited from earlier work.
The subject of data set [4] is RGC. Conditions: in comparison to the controls; cited from earlier work.
For the next data set, the system named is Bad. The conditions noted are these: in vivo; cited from earlier work.
Another data set concerns NMDA receptors. The conditions noted are these: cited from earlier work.
The subject of data set [5] is RGC. Put plainly: Alzheimer Triple Transgenic (3× Tg-AD) model and aged PS1KI control, retinal cell death imaging. The class given is in vivo, mouse. The protocol:
as §1, §2, §3, §4
However, in these studies aged (27 month) wild type congeners were not assessed.
The inventors next investigated whether oxidative stress in AD eyes influenced the phase of cell death and whether this could be visualized in vivo. As intraneuronal Aβ accumulation and extracellular Abeta plaques are characteristics of this model (LaFerla et al., 2007), the inventors hypothesised that the addition of PMA would reveal whether the level of Abeta in this transgenic mouse is sufficient to modulate the retinal response in vivo (Abramov et al., 2005). […]

Data set [6] has as its system ROS production in the retina. The data set is described as follows: ROS production in mouse retina in vivo visualized with DHE. Conditions: intravitreal; vs vehicle/control eye. The protocol: FIG. 12B. The effects of rotenone on ROS production in mouse retina in vivo. ROS production visualized with DHE (dihydroethidium). DHE is a non-fluorescent agent, reacting with ROS intracellularly to produce a fluorescent oxidative product which can be detected. Rotenone (50 uM, 1 ul) was intravitreally injected into the one eye (C57) and the same volume of vehicle (saline) injected into the contralateral eye. DHE (1 ul) was then injected intravitreally and both eyes imaged to detect ROS production using a SLO machine.
FIG. 12C. The effects of PMA in producing ROS in mouse retina in vivo. PMA (50 ug/ml, 1 ul) was injected intravitreally into the one eye and saline (1 ul) into the contralateral eye. DHE (1 ul) was simultaneously injected for detecting ROS production.
FIG. 12D. The effects of Aβ25-35 on ROS production in vivo. DHE was intravitreally injected into the both eyes of a mouse to detect ROS production.

In data set [7] the test system is astrocyte cultures (NADPH oxidase). Conditions: 1 μg/ml; cited from earlier work.
The conditions of data set [8]: in vivo; cited from earlier work.
Data set [9] deals with RGC. Conditions: in vitro and in vivo; cited from earlier work.
The subject of a further data set is neuronal cells. The conditions noted are these: in vitro; cited from earlier work.
In data set [10] the test system is RGC. Conditions: in vivo; cited from earlier work.
Data set [11] has as its system neurons within the contra-lateral Lateral geniculate Body. The conditions noted are these: in vivo; cited from earlier work.
The conditions of data set [12]: phase III, patients with OAG; cited from earlier work.
For data set [13], the system named is RGC. The conditions noted are these: rat, in vivo; cited from earlier work.
The mark [14] stands for this setting: Abeta + MK801 vs Abeta alone, 72 h.
[15] abbreviates: 3 weeks after elevated IOP induction.

Entries after “also recorded” stand apart in the source; their conditions may differ. Counter-ions that a name gives are not always drawn. Like-named read-outs stand apart in the source and are kept apart here. Where a SMILES comes first, the peptide text is derived from it. The star is where a group is joined. Cbz = O=C(OCc1ccccc1)*

Regarding `O=[N+]([O-])c1cc2nc(O)c(O)nc2cc1[N+](=O)[O-]` [DNQX], in the data set on RGC [1], the RGC survival entry is recorded as “greater enhancement”.

As to `C[C@]12N[C@H](Cc3ccccc31)c1ccccc12` [MK801, (+)-5-methyl-10,11-dihydro-5H-dibenzo[a,d]cyclohepten-5,10-imine maleate], the “number of annexin V and PI positive cells” value with RGC [2] (72 hours after intravitreal 3.40 nmol Aβ25-35, MK801 0.40 nmol intravitreal at the same time as Abeta, vs Abeta-only fellow eye) is “reduces”. Further, in the data set with RGC [2] (setting [14]), the “necrosis (PI+)” value is “clearly reduced; also recorded: reducing”, the “number of cells in late phase apoptosis (Anx+/PI+)” value was “clearly reduced; also recorded: reducing” and the “number of early phase apoptotic cells (Anx+)” value is listed as “small increase”. For the same compound, the “overall levels of cell death (Total)” value with RGC [2] (Abeta + MK801 vs Abeta alone, 72 h, co-localization scatter plot quantification) was “clearly reduced”. Besides, in the data set with RGC [3] (setting [15]), the “late phase apoptosis (Anx+/PI+)” value is given as “significant reduction; also recorded: significant decrease” and the “levels of necrosis (PI+)” value is recorded as “significant reduction; also recorded: significant decrease”. The “number of dying cells (Total cell death markers)” value in the data set on RGC [3] (3 weeks after elevated IOP induction, p<0.05) was “significant reduction”. Further, in the data set with RGC [3] (MK801 0.6 nmol at the time of surgery, 3 weeks, vs untreated OHT), the “numbers of annexin V and PI positive (apoptotic and necrotic) cells” value is “significantly reduced”. Also, the RGC protection result in the data set on RGCs was “protect RGCs”. Further, the “number of apoptotic RGCs” value with RGC [4] is recorded as “reduction”. The Bad expression result in the data set with Bad is reported as “decreasing”. Also, in the data set on NMDA receptors, the neurotoxicity result was “neurotoxic effect”.

For the compound `CCCCCCCCCCCCCC(=O)O[C@@H]1[C@@H](C)[C@@]2(O)[C@@H](C=C(CO)C[C@]3(O)C(=O)C(C)=C[C@@H]23)[C@@H]2C(C)(C)[C@]12OC(C)=O` [PMA, phorbol myristate acetate], the “overall levels of cell death (Total)” value in the data set on RGC [2] (Abeta + PMA vs Abeta, all treated animals, p<0.05) is recorded as “significantly (p<0.05) increases”. Further, in the data set on RGC [2] (Abeta + PMA vs Abeta, p<0.05), the “number of cells in the early phase of apoptosis (Anx+)” value was “significantly (p<0.05) increased; also recorded: significant (p<0.05) increase”. Besides, the “annexin V (and PI) positive cells” value with RGC [2] (PMA 0.016 nmol with annexin V and PI, 72 hours after 3.40 nmol Aβ25-35, imaging 2 hours later, vs vehicle eye) was “increased”. In addition, in the data set with RGC [5] (3× Tg-AD model, p<0.05), the “late apoptosis (Anx+/PI+)” value was “decreased”. Besides, the “increase in early phase apoptosis (Anx+)” value is recorded as 61.4% in the data set with RGC [5] (14-month 3× Tg-AD, 2 hours after intravitreal PMA with annexin and PI); 30.3% in the data set on RGC [5] (aged control (PS1KI, 18 month), 2 hours after intravitreal PMA). Further, the necrosis result with RGC [5] (control eyes, p<0.05) is listed as “decreased”. Moreover, in [6], the “ROS production in the retina (DHE fluorescence)” value is given as “significantly higher levels of ROS production”. Further, the “ROS generation (lucigenin)” value in data set [7] is listed as “increase”.

For the compound `Nc1nc2ccc(OC(F)(F)F)cc2s1` [Riluzole], in [8], the ERG wave recovery result is “enhance” and the pressure-induced apoptosis entry is reported as “prevent or decrease”.

Consider `CC(C)C[C@@H](C=O)NC(=O)[C@H](CC(C)C)NC(=O)[C@@H](NC(=O)OCc1ccccc1)C(C)C` [Z-VLL-CHO, N-benzyloxycarbonyl-Val-Leu-leucinal] (Cbz-Val-Leu-Leu-aldehyde), for which the RGC apoptosis entry in the data set on RGC [9] is “reduce”.

Regarding `CC12CC3CC(C)(C1)CC(N)(C3)C2` [memantine, 1-amino-3,5-dimethyl-adamantane], the NMDA-induced neuronal death entry with neuronal cells is recorded as “reduction”. Also, the RGC loss result with RGC [10] was “decreased”. In addition, in data set [11], the “shrinkage of neurons (LGB layers 1, 4, and 6)” value was “reduction”. Besides, in [12], the primary end point result is “ineffective”.

As for Geranylgeranylacetone, in the data set with RGC [13], the RGC loss entry was “marked reduction” and the “expression of HSP-72” value was “increase”.

The record behind these values is patent US9014457B2, “Quantifying cell death” (UCL Business PLC, priority 2009, dated 2015).
